Test results taken from paper PMC9224512, “New Insights into the Determinants of Specificity in Human Type I Arginase: Generation of a Mutant That Is Only Active with Agmatine as Substrate” (International Journal of Molecular Sciences, 2022).
Numbering of substitutions follows the chain as printed.

Legend:
[1] = biological target: T1, human arginase type I N139D (Homo sapiens, UniProt P05089, N139D); assay: Kinetic and inhibition studies, N139D mutant; type: biochemical; conditions: arginine 5 mM, pH 9.5; Figure 3A
T1 sequence (P05089 1-322 N139D): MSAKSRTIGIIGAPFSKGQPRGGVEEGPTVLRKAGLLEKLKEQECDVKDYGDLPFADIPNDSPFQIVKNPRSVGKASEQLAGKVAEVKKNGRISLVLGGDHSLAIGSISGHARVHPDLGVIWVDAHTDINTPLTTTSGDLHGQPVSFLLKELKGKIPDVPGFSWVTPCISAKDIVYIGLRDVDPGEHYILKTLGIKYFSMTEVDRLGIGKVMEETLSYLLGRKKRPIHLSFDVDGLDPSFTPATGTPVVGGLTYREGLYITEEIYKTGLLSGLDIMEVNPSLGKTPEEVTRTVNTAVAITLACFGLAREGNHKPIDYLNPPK
Protocol: (§1) Bacterial cultures were grown with shaking at 37 °C in Luria Broth media, in the presence of ampicillin (100 μg/mL). The wild-type and mutant human liver arginase cDNAs were directionally cloned into the pBluescript II KS(+) expression vector and then expressed in E. coli JM109, following induction with 1 mM isopropyl β-D-thiogalactopyranoside. The bacterial cells were disrupted by sonication on ice (5 × 30 s pulses), centrifuged for 20 min at 12,000× g, and the obtained supernatant was precipitated with ammonium sulfate (60% saturation). The pellet, collected by centrifugation at 12,000× g for 10 min, was re-suspended in buffer 5 mM Tris–HCl (pH 7.5) containing 2 mM MnCl2 and dialyzed for 6 h at 4 °C against the same buffer. After incubation with 5 mM MnCl2 for 10 min at 60 °C, the enzyme variants were purified as previously described. The purity of the enzymes was evaluated by SDS–PAGE stained by Coomassie blue and immunodetection using an anti- rat arginase I antibody.
(§2) The single, double, triple, and chimera variants of human arginase type I were obtained by PCR, using the QuickChange site-directed mutagenesis kit (Stratagene, La Jolla, CA, USA); the plasmid pBluescript II KS(+) containing the human liver arginase cDNA was used as template. To obtain the chimeric species of human arginase type I, serial mutations were made in each loop to be modified, using as template DNA the wild-type arginase gene or the previous done mutation, subcloned in the plasmid pBluescript II KS (+). Specifically, the residues present in the arginase structure were replaced by those corresponding to the agmatinase sequence of E. coli.
(§3) All assays were initiated by adding the enzyme to a previously equilibrated buffer with the substrate in solution (the concentrations of used substrates were between 0.2–3 fold the Km). Urea was determined by a colorimetric method with α-isonitrosopropiophenone. The protein concentrations were determined by the Bradford’s method, with bovine serum albumin as standard. Initial velocity and enzymatic inhibition experiments were performed in duplicate and repeated three times. The inhibitory patterns were initially determined by double reciprocal plots and re-plots of intercepts and slopes versus inhibitor concentrations. […] Velocities are expressed as μmol of urea/10 min.

rat liver arginase = tested on: rat liver arginase; parameters: method as in PMID 8031143; conditions: substrate agmatine; cited from earlier work
[2] = biological target: T2, WT-arginase (human arginase type I) (Homo sapiens, UniProt P05089); assay: Kinetic and inhibition studies, wild-type human arginase type I; type: biochemical; conditions: for Inhibition type / Kis (Ki): substrate arginine
T2 construct: made in house; host or cells: E. coli JM109
T2 sequence (P05089 1-322): T1 sequence (P05089 1-322 N139D) with D139N
Protocol: as §1, §3

[3] = biological target: T3, human arginase type I N130D (Homo sapiens, UniProt P05089, N130D); assay: Kinetic and inhibition studies, N130D mutant; type: biochemical; conditions: arginine 5 mM, pH 9.5; Figure 3A
T3 sequence (P05089 1-322 N130D): T1 sequence (P05089 1-322 N139D) with N130D, D139N
Protocol: as §1, §2, §3

[4] = biological target: T4, human arginase type I S137C (Homo sapiens, UniProt P05089, S137C); assay: Kinetic and inhibition studies, S137C mutant; type: biochemical; conditions: arginine 5 mM, pH 9.5; Figure 3A
T4 sequence (P05089 1-322 S137C): T1 sequence (P05089 1-322 N139D) with S137C, D139N
Protocol: as §1, §2, §3

E. coli agmatinase = biological target: T5, E. coli agmatinase (Escherichia coli, UniProt P60651); assay: Kinetic studies, E. coli agmatinase; type: biochemical; conditions: substrate = labelled compound; n/a = no activity with the substrate
T5 sequence (P60651 1-306): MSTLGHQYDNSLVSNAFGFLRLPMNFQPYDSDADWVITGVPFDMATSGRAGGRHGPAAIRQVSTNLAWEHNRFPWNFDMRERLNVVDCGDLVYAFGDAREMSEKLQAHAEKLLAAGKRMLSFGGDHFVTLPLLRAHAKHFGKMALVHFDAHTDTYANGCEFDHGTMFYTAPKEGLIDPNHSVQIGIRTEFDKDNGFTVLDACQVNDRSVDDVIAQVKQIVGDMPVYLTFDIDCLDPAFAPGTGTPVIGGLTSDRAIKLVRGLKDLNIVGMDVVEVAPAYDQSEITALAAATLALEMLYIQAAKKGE
Protocol: as §3

[5] = biological target: T6, Chimera A1 (I129T/N130Y/T131A) of human arginase type I (Homo sapiens, UniProt P05089, I129T/N130Y/T131A); assay: Kinetic and inhibition studies, Chimera A1; type: biochemical; conditions: substrate arginine
T6 sequence (P05089 1-322 I129T/N130Y/T131A): T1 sequence (P05089 1-322 N139D) with I129T, N130Y, T131A, D139N
Protocol: as §1, §2, §3

[6] = biological target: T7, type I human arginase D181T/V182E (Homo sapiens, UniProt P05089, D181T/V182E); assay: Kinetic and inhibition studies, D181T/V182E double mutant; type: biochemical; conditions: substrate arginine
T7 construct: made in house; host or cells: E. coli JM109
T7 sequence (P05089 1-322 D181T/V182E): T1 sequence (P05089 1-322 N139D) with D139N, D181T, V182E
Protocol: as §1, §2, §3

[7] = biological target: T8, Chimera A2 (I129T/N130Y/T131A+∆ P132-T134) of human arginase type I (Homo sapiens, UniProt P05089, DEL129-131/I129T/L133Y/N130Y/P132T/T134A); assay: Kinetic and inhibition studies, Chimera A2; type: biochemical; conditions: substrate agmatine
T8 construct: made in house; host or cells: E. coli JM109
T8 sequence (P05089 with tags, fused parts or gaps DEL129-131/P132T/L133Y/T134A): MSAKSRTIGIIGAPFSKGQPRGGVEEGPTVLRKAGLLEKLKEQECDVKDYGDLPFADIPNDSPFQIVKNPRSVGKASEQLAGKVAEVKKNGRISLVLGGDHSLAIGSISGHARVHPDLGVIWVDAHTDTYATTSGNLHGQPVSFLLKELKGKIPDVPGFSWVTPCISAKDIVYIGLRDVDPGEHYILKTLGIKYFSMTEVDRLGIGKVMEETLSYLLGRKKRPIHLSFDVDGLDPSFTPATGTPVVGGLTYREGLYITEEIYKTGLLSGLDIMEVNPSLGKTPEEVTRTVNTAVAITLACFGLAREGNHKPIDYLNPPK
Protocol: as §1, §2, §3

[8] = biological target: T9, type I human arginase D181T (Homo sapiens, UniProt P05089, D181T); assay: Kinetic and inhibition studies, D181T mutant; type: biochemical; conditions: substrate arginine
T9 sequence (P05089 1-322 D181T): T1 sequence (P05089 1-322 N139D) with D139N, D181T
Protocol: as §1, §2, §3

[9] = biological target: T10, type I human arginase V182E (Homo sapiens, UniProt P05089, V182E); assay: Kinetic and inhibition studies, V182E mutant; type: biochemical; conditions: substrate arginine
T10 sequence (P05089 1-322 V182E): T1 sequence (P05089 1-322 N139D) with D139N, V182E
Protocol: as §1, §2, §3

[10] = biological target: T11, type I human arginase D181T/V182E + ins F (Homo sapiens, UniProt P05089, D181E/D181T/INS180T/V182E/V182F); assay: Kinetic and inhibition studies, D181T/V182E + ins F; type: biochemical; conditions: substrate arginine
T11 sequence (P05089 with tags, fused parts or gaps INS180T/D181E/V182F): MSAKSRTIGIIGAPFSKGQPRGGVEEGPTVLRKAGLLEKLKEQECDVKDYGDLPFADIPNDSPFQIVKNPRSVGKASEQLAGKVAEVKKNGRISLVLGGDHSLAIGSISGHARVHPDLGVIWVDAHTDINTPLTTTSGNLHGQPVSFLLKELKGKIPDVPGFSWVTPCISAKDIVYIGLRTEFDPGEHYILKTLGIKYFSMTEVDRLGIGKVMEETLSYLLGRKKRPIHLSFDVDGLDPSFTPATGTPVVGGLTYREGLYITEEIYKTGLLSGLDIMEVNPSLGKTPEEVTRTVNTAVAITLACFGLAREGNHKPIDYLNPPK
Protocol: as §1, §2, §3

Kis (Ki) ([2]; pH 9.5) | Inhibition type [6] | Inhibition type [7] | Kis (Ki) [6] | Inhibition type [8] | Kis [8] | Kis [7] | Inhibition type [9] | Kis [9] | Inhibition type [10] | Kis [10] | SMILES | Inhibition of arginase activity by agmatine [1] | kcat, times lower than for arginine (rat liver arginase) | Inhibition of arginase activity by agmatine ([2]; arginine 5 mM, pH 9.5, Figure 3A) | Inhibition type [2] | Inhibition of arginase activity by agmatine [3] | Inhibition of arginase activity by agmatine [4] | kcat (E. coli agmatinase) | Inhibition type [5] | Kis (Ki) [5]
 | competitively inhibited | competitive |  |  |  |  |  |  |  |  | NCCCCN [Putrescine, putrescine] |  |  |  |  |  |  |  |  | 
56 ± 4 mM | Competitive | linear competitive inhibition | 80 ± 5 mM | Competitive | 85 ± 10 mM | 40 ± 6 mM | Competitive | 89 ± 12 mM | Competitive | 70 ± 10 mM | N=C(N)N [Guanidine, guanidine] |  |  |  | Competitive |  |  |  | Competitive | 38 ± 6 mM
5 mM | competitively inhibited |  | 42 mM |  |  |  |  |  |  |  | NCCCC[C@H](N)C(=O)O [Lysine, lysine] |  |  |  |  |  |  |  |  | 

SMILES | Kis (Ki) ([2]; pH 9.5) | Inhibition type [6] | Inhibition type [7] | Kis (Ki) [6] | Inhibition type [8] | Kis [8] | Kis [7] | Inhibition type [9] | Kis [9] | Inhibition type [10] | Kis [10] | Inhibition of arginase activity by agmatine [1] | kcat, times lower than for arginine (rat liver arginase) | Inhibition of arginase activity by agmatine ([2]; arginine 5 mM, pH 9.5, Figure 3A) | Inhibition type [2] | Inhibition of arginase activity by agmatine [3] | Inhibition of arginase activity by agmatine [4] | kcat (E. coli agmatinase) | Inhibition type [5] | Kis (Ki) [5]
N=C(N)NCCCCN [Agmatine, 1-amino-4-guanidinobutane] | 42 ± 5 mM |  |  |  |  |  |  |  |  |  |  | markedly sensitive | approximately 5000 times | poorly inhibited | Competitive | markedly sensitive | markedly sensitive | 120 ± 10 s⁻¹ | Competitive | 27 ± 2 mM
